Results taken from patent publication US20230165242A1, “RODENTICIDAL BAIT AND METHOD OF CONTROLLING TARGET HARMFUL RODENTS” (priority 2020, published 2023).

Assays:
[1] = system: brown rats (Rattus norvegicus) that are homozygotic carriers of the Y139C mutation; experiment: Relative toxicity of cholecalciferol, single gavage dose, Y139C rats; assay type: in vivo; conditions: single gavage dose 30 mg/kg; 20 days
From the text: (§1) Warfarin-sensitive Sprague-Dawley rats (20 male rats and 20 female rats), male and female rats that are homozygotic carriers of the L120Q mutation, male and female Sprague-Dawley rats that are homozygotic carriers of the Y139F mutation and male and female brown rats (Rattus norvegicus) that are homozygotic carriers of the Y1 39C mutation are acclimatized for 5 days in the presence of a conventional solid feed and water in unlimited amounts. The rats are fed by gavage with a single dose of a gavage solution containing cholecalciferol (Sigma-Aldrich, France) in a solvent consisting of 95% (v/v) of oil and 5% (v/v) of DMSO. The rats are fed with a conventional solid feed and water in unlimited amounts. The amount of cholecalciferol administered is 30 mg of cholecalciferol per kilogram of body weight of the rat fed by gavage. The percentage of rats surviving gavage for 20 days, counting from the first day of gavage, is noted daily. The results given in Table 4 hereunder describe the mortality observed (“SD”, Sprague-Dawley). The amount of cholecalciferol ingested by the rodents during gavage corresponds to consumption by these rodents of a bait assayed at 300 ppm of cholecalciferol.

[2] = system: warfarin-sensitive male OFA-Sprague-Dawley rats; experiment: Dose/rodenticidal response effect of cholecalciferol; assay type: in vivo, rat; conditions: gavage, 21 days
Experimental: A gavage solution containing cholecalciferol (Sigma-Aldrich, France) in a solvent consisting of 95% (v/v) of oil and 5% (v/v) of DMSO is administered once a day for 3 consecutive days to warfarin-sensitive male OFA-Sprague-Dawley rats (Charles River, L′Arbresles, France), aged 10 weeks and with a body weight between 160 and 180 g. During this period of gavage, the rats are fed with a conventional solid feed and water in unlimited amounts. The doses of cholecalciferol administered to the OFA-Sprague-Dawley rats, given in Table 7 hereunder, are expressed in milligrams of cholecalciferol administered per kilogram of body weight of the gavage-fed rodent.
The percentage of rats surviving gavage is noted daily for 21 days counting from the first day of gavage.

[3] = system: rats that are homozygotic carriers of the L120Q mutation; experiment: Relative toxicity of cholecalciferol, single gavage dose, L120Q rats; assay type: in vivo, rat; conditions: single gavage dose 30 mg/kg; 20 days
From the text: as §1

[4] = system: warfarin-sensitive male OFA-Sprague-Dawley rats; experiment: Synergy of difethialone and cholecalciferol on warfarin-sensitive rats, gavage, survival; assay type: in vivo, rat; conditions: gavage once a day for 3 days; cholecalciferol alone 7.5 mg/kg; after 2 days of observation
From the text: A group of warfarin-sensitive male OFA-Sprague-Dawley rats (Charles River, L′Arbresles, France), aged 10 weeks and with a body weight between 160 and 180 g, are fed by gavage once a day for 3 consecutive days with a gavage solution containing difethialone (LIPHATECH, France) and cholecalciferol (Sigma-Aldrich, France) in a solvent consisting of 95% (v/v) of oil and 5% (v/v) of DMSO. During this period of gavage, the rats are fed with a conventional solid feed and water in unlimited amounts. The amounts of difethialone and cholecalciferol administered are 125 μg per kilogram of body weight of the rat fed by gavage and 7.5 mg per kilogram of body weight of the rat fed by gavage, respectively. The rats in two control groups, each consisting of OFA-Sprague-Dawley rats, are fed by gavage in the same conditions with gavage solutions containing difethialone alone (125 μg/kg) or cholecalciferol alone (7.5 mg/kg), respectively. The percentage of rats surviving gavage is recorded daily, for 20 days counting from the first day of gavage. The results presented [FIG. 3] show the variation of the percentage of rodents surviving (in %) as a function of time (t, in days) following the first day of gavage. The rats fed by gavage with the difethialone solution (♦) have 100% survival after 20 days of observation. […]

[5] = system: warfarin-sensitive male OFA-Sprague-Dawley rats; experiment: Synergy of bromadiolone and cholecalciferol, gavage, survival; assay type: in vivo, rat; conditions: gavage 5 consecutive days; bromadiolone 0.1 mg/kg alone, cholecalciferol 7.5 mg/kg alone, or both combined; after 20 days of observation
From the text: A group of 10 warfarin-sensitive male OFA-Sprague-Dawley rats (Charles River, L′Arbresles, France), aged 10 weeks and with a body weight between 160 and 180 g, are fed by gavage for 5 consecutive days with a gavage solution containing bromadiolone (LIPHATECH, France) and cholecalciferol (Sigma-Aldrich, France) in a solvent consisting of 95% (v/v) of oil and 5% (v/v) of DMSO. During this period of gavage, the rats are fed with a conventional solid feed and water in unlimited amounts. The rats are fed by gavage with a volume of this gavage solution so as to administer an amount of bromadiolone corresponding to 0.1 mg of bromadiolone per kilogram of body weight of the rat fed by gavage and an amount of cholecalciferol corresponding to 7.5 mg of cholecalciferol per kilogram of body weight of the rat fed by gavage. The rats in two control groups, each consisting of 10 male OFA-Sprague-Dawley rats, are fed by gavage in the same conditions with gavage solutions containing, respectively, bromadiolone alone so as to administer an amount of bromadiolone corresponding to 0.1 mg of bromadiolone per kilogram of body weight of the rat fed by gavage and cholecalciferol alone so as to administer an amount of cholecalciferol corresponding to 7.5 mg of cholecalciferol per kilogram of body weight of the rat fed by gavage. […]

[6] = system: Sprague-Dawley rats that are homozygotic carriers of the Y139F mutation; experiment: Relative toxicity of cholecalciferol, single gavage dose, Y139F rats; assay type: in vivo, rat; conditions: single gavage dose 30 mg/kg; 20 days
From the text: as §1

C=C1CC[C@H](O)C/C1=C/C=C1\CCC[C@]2(C)[C@@H]([C@H](C)CCCC(C)C)CC[C@@H]12 [cholecalciferol]
Female mortality, % [1]: 0%
Male mortality, % [1]: 30%
Mortality, % ([2]; dose 5 mg/kg once a day for 3 days): 20%
Mortality, % ([2]; dose 7.5 mg/kg once a day for 3 days): 30%
Female mortality, % [3]: 5%
Male mortality, % [3]: 15%
percentage of rats surviving [4]: 60%
percentage of rats surviving [5]: 70%
Female mortality, % [6]: 0%
Male mortality, % [6]: 30%
